Entries after “also recorded” stand apart in the source; their conditions may differ.
Tests used:
[1] = system: PICSC tumor xenografts; assay: PICSC generated isograft tumor growth in mice; format: in vivo; details: siRNA injected from day 15, 5 times at an interval of 3 days
Description: To determine whether targeted DCAMKL-1 downregulation and/or Notch inhibition affected […] generated isograft tumor growth, mice were treated with siRNA to DCAMKL-1 or the Notch inhibitor DAPT. After the tumors were allowed to develop (15 days), siRNA was injected a total of 5 times at an interval of 3 days as described earlier.

[2] = system: HCT116 tumor xenografts; assay: HCT116 tumor xenograft model in athymic nude mice, intratumoral treatment; format: in vivo
Source text: (§1) Real-time reverse transcription-PCR analyses. Total RNA isolated either from cells or from human colon cancer cell tumor xenograft samples was subjected to reverse transcription with Superscript™ II RNase H—Reverse Transcriptase and random hexanucleotide primers (Invitrogen, Carlsbad, Calif.). The cDNA was subsequently used to perform Real-time PCR by SYBR chemistry (SYBR® Green I; Molecular Probes) for specific transcripts using gene specific primers and Jumpstart Taq DNA polymerase (Sigma-Aldrich, St. Louis, Mo.). […] The changes in mRNA were expressed as fold change relative to control with ±SEM value.
(§2) miRNA analysis. Total miRNA was isolated using mirVana™ miRNA isolation kit (Ambion Inc.). Total miRNA isolated either from cells or from human colon cancer cell tumor xenograft samples were subjected to reverse transcription with Superscript™ II RNase H—Reverse Transcriptase and random hexanucleotide primers (Invitrogen, Carlsbad, Calif.). The cDNA was subsequently used to perform Real-time PCR by SYBR chemistry (SYBR® Green I; Molecular Probes) for pri-let-7a transcript using specific primers and Jumpstart Taq DNA polymerase (Sigma-Aldrich, St. Louis, Mo.). […] The changes in pri-miRNA were expressed as fold change relative to control with ±SEM value. Primers used are: […]
Western Blot analysis. HCT116 and SW480 cells were cultured in a 6 well plates to 40% confluency and were transfected with si-DCAMKL-1 or si-Scr for 72 h. Cells or the tumor xenograft samples were lysed and the concentration of protein was determined by BCA protein assay kit (Pierce Biotechnology Inc., Rockford, Ill.). […] The membrane was blocked in 5% non-fat dry milk for 1 h and probed overnight with a rabbit anti-DCAMKL-1 antibody (Abcam Inc., Cambridge, Mass.) or with rabbit anti-c-Myc antibody (Santa Cruz). Subsequently, the membrane was incubated with anti-rabbit or anti-goat IgG horseradish peroxidase-conjugated antibodies (Amersham-Pharmacia) for 1 h at room temperature. The 82 kDa DCAMKL-1 and 49 kDa c-Myc proteins were detected using ECL™ Western Blotting detection reagents (Amersham-Pharmacia). Actin (43 kDa), used as loading control was identified using a goat polyclonal IgG (Santa Cruz Biotechnology Inc., Santa Cruz, Calif.).
Immunohistochemistry. Heat Induced Epitope Retrieval was performed on 4 μm formalin-fixed paraffin-embedded sections utilizing a pressurized Decloaking Chamber (Biocare Medical) in citrate buffer (pH 6.0) at 99° C. for 18 min. (a) Brightfield: Slides were incubated in 3% hydrogen peroxide, then normal serum and BSA at room temperature for 20 min. After incubation with primary antibody [DCAMKL-1 C-terminal (Abcam), anti-c-Myc (Santa Cruz Biotechnologies), L-FABP (Santa Cruz Biotechnologies)], the slides were incubated in peroxidase-conjugated EnVision™+polymer detection kit (DAKO). Slides were developed with Diaminobenzidine (Sigma). (b) Fluorescence: Slides were first incubated in Image-iT FX signal enhancer (Invitrogen), followed by normal serum and BSA at room temperature for 20 min.
Xenograft tumor model. (a) Liposomal preparation: siRNA was administered into the xenografts after incorporation into 1,2-Dioleoyl-sn-Glycero-3-Phosphocholine (DOPC) (Avanti Polar Lipids, Alabaster, Ala.). DOPC and siRNA were mixed in the presence of excess tertiary butanol at a ratio of 1:10 (w/w) (siRNA/DOPC). Tween 20 (Sigma-Aldrich) was added to the mixture at a ratio of 1:19 Tween 20:siRNA/DOPC. The mixture was vortexed and frozen in an acetone/dry ice bath and lyophilized. Before administration, the siRNA preparation was reconstituted in 0.9% sterile saline and injected at a dose of 50 μl (5 μM) per injection. (b) Tumor therapy: Female athymic nude mice (NCr-nu) were purchased from the National Cancer Institute-Frederick Cancer Research and Development Center (Frederick, Md.) and housed in specific pathogen-free conditions.

[3] = system: DCAMKL-1; assay: siRNA knockdown of DCAMKL-1 in HCT116 cells, real-time RT-PCR and Western blot; format: cell-based, human
Chain of DCAMKL-1 (O15075 other isoform, or with tags, fused parts or gaps): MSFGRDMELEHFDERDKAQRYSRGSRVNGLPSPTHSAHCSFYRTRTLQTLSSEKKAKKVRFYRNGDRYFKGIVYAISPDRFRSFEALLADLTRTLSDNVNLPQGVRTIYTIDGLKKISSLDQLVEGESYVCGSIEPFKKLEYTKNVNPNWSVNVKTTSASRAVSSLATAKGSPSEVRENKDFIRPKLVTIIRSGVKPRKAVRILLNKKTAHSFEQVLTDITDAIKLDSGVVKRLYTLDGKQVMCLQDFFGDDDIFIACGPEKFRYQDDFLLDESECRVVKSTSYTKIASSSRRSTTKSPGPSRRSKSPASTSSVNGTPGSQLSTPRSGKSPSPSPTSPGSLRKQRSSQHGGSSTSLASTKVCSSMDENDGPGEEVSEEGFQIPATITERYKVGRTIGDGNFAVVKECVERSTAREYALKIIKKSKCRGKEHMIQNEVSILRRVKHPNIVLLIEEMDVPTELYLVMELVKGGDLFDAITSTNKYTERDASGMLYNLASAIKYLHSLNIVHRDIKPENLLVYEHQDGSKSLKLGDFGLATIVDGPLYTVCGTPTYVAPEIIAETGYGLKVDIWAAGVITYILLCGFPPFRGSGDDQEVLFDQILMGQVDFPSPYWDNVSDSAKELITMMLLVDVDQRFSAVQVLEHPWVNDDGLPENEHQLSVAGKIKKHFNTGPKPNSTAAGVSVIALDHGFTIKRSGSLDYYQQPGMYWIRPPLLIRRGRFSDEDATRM
Description: Cell culture. HCT116, HCT116 p21^−/− and SW480 human colon adenocarcinoma cell lines were obtained from the American Type Culture Collection (ATCC) and grown in Dulbecco's modified eagle's medium (DMEM) supplemented with 10% fetal bovine serum and 100 U/mL penicillin-streptomycin in a humidified chamber at 37° C. with 5% CO2.
Silencer RNA. DCAMKL-1 siRNA (si-DCAMKL-1) sequence targeting the coding region of DCAMKL-1 (Accession # NM_004734 (SEQ ID NO:1)) ([…] (SEQ ID NO:3)) and scrambled control siRNAs (si-Scr) not matching any of the human genes were obtained (Ambion Inc., Austin, Tex.) and transfected using Transfectol™ (Ambion Inc.).
as §1, §2
Western Blot analysis. HCT116 and SW480 cells were cultured in a 6 well plates to 40% confluency and were transfected with si-DCAMKL-1 or si-Scr for 72 h. Cells or the tumor xenograft samples were lysed and the concentration of protein was determined by BCA protein assay kit (Pierce Biotechnology Inc., Rockford, Ill.). Forty μg of the protein was size separated in a 7.5-15% SDS polyacrylamide gel and transferred onto a nitrocellulose membrane with a semidry transfer apparatus (Amersham-Pharmacia, Piscataway, N.J.). The membrane was blocked in 5% non-fat dry milk for 1 h and probed overnight with a rabbit anti-DCAMKL-1 antibody (Abcam Inc., Cambridge, Mass.) or with rabbit anti-c-Myc antibody (Santa Cruz). Subsequently, the membrane was incubated with anti-rabbit or anti-goat IgG horseradish peroxidase-conjugated antibodies (Amersham-Pharmacia) for 1 h at room temperature. The 82 kDa DCAMKL-1 and 49 kDa c-Myc proteins were detected using ECL™ Western Blotting detection reagents (Amersham-Pharmacia). Actin (43 kDa), used as loading control was identified using a goat polyclonal IgG (Santa Cruz Biotechnology Inc., Santa Cruz, Calif.).

[4] = real-time RT-PCR, compared to control and si-Scr treated tumors

Substance: si-DCAMKL-1: siRNA targeting the coding region of DCAMKL-1 (NM_004734), sequence GGGAGUGAGAACAAUCUAC (SEQ ID NO:3) (chemistry not given here; listed as Homo sapiens)
- isograft tumor growth [1]: growth arrest
- DCAMKL-1 protein in tumors ([2]; Western blot): reduced expression
- Notch-1 and cleaved Notch-1 protein in tumors ([2]; Western blot analysis): marked reduction
- c-Myc protein in tumors ([2]; Western blot and immunohistochemical analyses): striking reduction
- reduction in Notch-1 mRNA in tumors ([2]; compared to controls): 55%
- reduction in c-Myc mRNA in tumors ([2]; compared to controls): 45%
- downregulation of DCAMKL-1 mRNA expression in tumors [2, 4]: 55%
- increase in pri-let-7a miRNA expression in tumors [2, 4]: > 3 fold
- tumor size / xenograft growth ([2]; siRNA in liposome preparation injected into tumors from day 15, every third day, 5 doses): statistically significant reduction; also recorded: near complete tumor growth arrest
- tumor weight ([2]; tumors excised at day 28, after 5 injections): significantly decreased
- c-Myc mRNA and protein [3]: Reduction
- reduction in Notch-1 mRNA [3]: 40%
- Notch-1 and cleaved Notch-1 protein ([3]; Western blot): dose dependent reduction
- DCAMKL-1 protein ([3]; Western blot, 72 h transfection): reduction
- reduction in DCAMKL-1 mRNA expression ([3]; real-time RT-PCR): > 70%
- increase in pri-let-7a miRNA ([3]; real-time RT-PCR, compared to controls): 4 fold

From patent publication US8936941B2, “Compositions useful for cancer detection and treatment, a cancer stem cell model, and methods of production and use thereof” (priority 2008, dated 2015)
